In ChEMBL document CHEMBL5104092, “An insight into the recent development of the clinical candidates for the treatment of malaria and their target proteins” (Eur J Med Chem, 2021):
Values after ≈ are worked out from the molar mass of the structure shown. One block for each molecule: values may come before it.

Tests used:
[1] = Inhibition of Plasmodium falciparum DHODH expressed in Escherichia coli BL21 cells using L-dihydroorotate as substrate by DCIP staining method
Plasmodium falciparum [2] = test: Antimalarial activity against Plasmodium falciparum 3D7 incubated for 72 hrs by SYBR-green method; type: functional, organism-based; conditions: 3D7, 72 h
Plasmodium falciparum [3] = test: Antimalarial activity against multidrug resistant Plasmodium falciparum Dd2 incubated for 72 hrs by malaria SYBR green I nucleic acid staining dye based fluorescence assay; type: functional, organism-based; conditions: Dd2, 72 h
Plasmodium yoelii [4] = test: In vivo antimalarial activity against chloroquine resistant Plasmodium yoelii N-67 infected in Swiss albino mouse assessed as suppression of parasitemia at 25 mg/kg measured upto 28 days relative to control; type: functional; conditions: time <= 28 day
Plasmodium falciparum [5] = test: Antimalarial activity against chloroquine sensitive Plasmodium falciparum 3D7 incubated for 72 hrs by malaria SYBR green I nucleic acid staining dye based fluorescence assay; type: functional, organism-based; conditions: 3D7, 72 h
Plasmodium falciparum [6] = test: Antimalarial activity against chloroquine resistant Plasmodium falciparum K1 incubated for 72 hrs by malaria SYBR green I nucleic acid staining dye based fluorescence assay; type: functional, organism-based; conditions: K1, 72 h
Plasmodium falciparum [7] = test: Antimalarial activity against chloroquine resistant Plasmodium falciparum Dd2 incubated for 48 hrs by SYBR green I fluorescence based assay; type: functional, organism-based; conditions: Dd2, 48 h
Plasmodium falciparum [8] = test: Antimalarial activity against chloroquine sensitive Plasmodium falciparum NF54 incubated for 48 hrs by SYBR green I fluorescence based assay; type: functional, organism-based; conditions: NF54, 48 h
Plasmodium falciparum [9] = test: Antimalarial activity against chloroquine resistant Plasmodium falciparum W2 incubated for 48 hrs by SYBR green I fluorescence based assay; type: functional, organism-based; conditions: W2, 48 h
Plasmodium falciparum [10] = test: Antimalarial activity against chloroquine resistant Plasmodium falciparum K1 incubated for 48 hrs by SYBR green I fluorescence based assay; type: functional, organism-based; conditions: K1, 48 h
[11] = Dissociation constant, pKa of compound; type: physicochemical
Plasmodium falciparum [12] = test: Antimalarial activity against chloroquine-sensitive Plasmodium falciparum 3D7 by Giemsa staining method; type: functional, organism-based
CYP450 = CYP450 (Homo sapiens, UniProt P04798+P05177+P05181+P08684+P10632+P10635+P11509+P11712+P13584+P20813+P20815+P20853+P24462+P24903+P33260+P33261+P51589+P78329+P98187+Q02928+Q08477+Q16678+Q16696+Q5TCH4+Q6VVX0+Q7Z449+Q8TAV3+Q96SQ9+Q9HB55); test: Inhibition of CYP450 (unknown origin); type: ADME, protein assay
[13] = Inhibition of Plasmodium vivax DHODH
Plasmodium falciparum [14] = test: In vivo antimalarial activity against Plasmodium falciparum infected in SCID mouse; type: functional
Plasmodium falciparum [15] = test: Antimalarial activity against Plasmodium falciparum K1; type: functional, organism-based
[16] = biological target: Voltage-gated inwardly rectifying potassium channel KCNH2 (Homo sapiens, UniProt Q12809); test: Inhibition of human ERG; type: toxicity
Plasmodium falciparum [17] = test: Antimalarial activity against Plasmodium falciparum NF54; type: functional, organism-based
Plasmodium falciparum [18] = test: Antiplasmodial activity against chloroquine resistant Plasmodium falciparum K1 incubated for 72 hrs by malaria SYBR green I nucleic acid staining dye based fluorescence assay; type: functional, organism-based; conditions: K1, 72 h
Plasmodium yoelii [19] = test: In vivo antimalarial activity against Plasmodium yoelii N-67 infected in Swiss mouse assessed as reduction in parasitemia level at 12.5 mg/kg, po measured on day 4 relative to control; type: functional; set-up: scale not given: the % may be the effect or the level left; conditions: time 4 day
[20] = Toxicity in Swiss mouse infected with Plasmodium yoelii N-67 assessed as survival rate at 12.5 mg/kg, po measured on day 4 relative to control; type: organism-based; conditions: in vivo, time 4 day, read-out: Activity
Plasmodium falciparum [21] = test: Antiplasmodial activity against chloroquine sensitive Plasmodium falciparum 3D7 incubated for 72 hrs by malaria SYBR green I nucleic acid staining dye based fluorescence assay; type: functional, organism-based; conditions: 3D7, 72 h
[22] = Inhibition of Plasmodium falciparum DHODH
Plasmodium falciparum [23] = test: Antimalarial activity against multidrug resistant Plasmodium falciparum TM90-C2B after 48 hrs in presence of [3H] hypoxanthine; type: functional, organism-based
Plasmodium falciparum [24] = test: Antimalarial activity against multidrug resistant Plasmodium falciparum W2 after 48 hrs in presence of [3H] hypoxanthine; type: functional, organism-based
Plasmodium berghei [25] = test: In vivo antimalarial activity against Plasmodium berghei infected in mouse administered po for 4 days by Peters 4 day test; type: functional; conditions: 96 h
Plasmodium falciparum [26] = test: Antimalarial activity against multidrug resistant Plasmodium falciparum MRA1239 after 48 hrs in presence of [3H] hypoxanthine; type: functional, organism-based
Plasmodium falciparum [27] = test: Antimalarial activity against multidrug resistant Plasmodium falciparum MRA1240 after 48 hrs in presence of [3H] hypoxanthine; type: functional, organism-based
[28] = Cmax in mouse blood at 16 mg/kg, po measured upto 28 days by LC-MS analysis; type: ADME, organism-based; set-up: time < 28 day, dose 16 mg/kg, route po
[29] = Elimination half life in mouse blood at 16 mg/kg, po measured upto 28 days by LC-MS analysis; type: ADME, organism-based; conditions: time < 28 day, read-out: LambdaZ (converted)
Plasmodium falciparum [30] = test: Antimalarial activity against Plasmodium falciparum assessed as increase in parasite swelling diameter at ring stage after 2 hrs by time-lapse live cell imaging (reference value: […]); type: functional
[31] = Drug elimination in human urine assessed as unchanged fraction; type: ADME; conditions: read-out: Drug excretion
[32] = Inhibition of Plasmodium vivax PI4K
Plasmodium berghei [33] = test: In vivo antimalarial activity against Plasmodium berghei infected in SCID mouse; type: functional
Plasmodium yoelii [34] = test: In vivo antimalarial activity against chloroquine resistant Plasmodium yoelii N-67 infected in Swiss albino mouse assessed as suppression of parasitemia at 10 mg/kg relative to control; type: functional

Chain of Voltage-gated inwardly rectifying potassium channel KCNH2 (Q12809 whole entry): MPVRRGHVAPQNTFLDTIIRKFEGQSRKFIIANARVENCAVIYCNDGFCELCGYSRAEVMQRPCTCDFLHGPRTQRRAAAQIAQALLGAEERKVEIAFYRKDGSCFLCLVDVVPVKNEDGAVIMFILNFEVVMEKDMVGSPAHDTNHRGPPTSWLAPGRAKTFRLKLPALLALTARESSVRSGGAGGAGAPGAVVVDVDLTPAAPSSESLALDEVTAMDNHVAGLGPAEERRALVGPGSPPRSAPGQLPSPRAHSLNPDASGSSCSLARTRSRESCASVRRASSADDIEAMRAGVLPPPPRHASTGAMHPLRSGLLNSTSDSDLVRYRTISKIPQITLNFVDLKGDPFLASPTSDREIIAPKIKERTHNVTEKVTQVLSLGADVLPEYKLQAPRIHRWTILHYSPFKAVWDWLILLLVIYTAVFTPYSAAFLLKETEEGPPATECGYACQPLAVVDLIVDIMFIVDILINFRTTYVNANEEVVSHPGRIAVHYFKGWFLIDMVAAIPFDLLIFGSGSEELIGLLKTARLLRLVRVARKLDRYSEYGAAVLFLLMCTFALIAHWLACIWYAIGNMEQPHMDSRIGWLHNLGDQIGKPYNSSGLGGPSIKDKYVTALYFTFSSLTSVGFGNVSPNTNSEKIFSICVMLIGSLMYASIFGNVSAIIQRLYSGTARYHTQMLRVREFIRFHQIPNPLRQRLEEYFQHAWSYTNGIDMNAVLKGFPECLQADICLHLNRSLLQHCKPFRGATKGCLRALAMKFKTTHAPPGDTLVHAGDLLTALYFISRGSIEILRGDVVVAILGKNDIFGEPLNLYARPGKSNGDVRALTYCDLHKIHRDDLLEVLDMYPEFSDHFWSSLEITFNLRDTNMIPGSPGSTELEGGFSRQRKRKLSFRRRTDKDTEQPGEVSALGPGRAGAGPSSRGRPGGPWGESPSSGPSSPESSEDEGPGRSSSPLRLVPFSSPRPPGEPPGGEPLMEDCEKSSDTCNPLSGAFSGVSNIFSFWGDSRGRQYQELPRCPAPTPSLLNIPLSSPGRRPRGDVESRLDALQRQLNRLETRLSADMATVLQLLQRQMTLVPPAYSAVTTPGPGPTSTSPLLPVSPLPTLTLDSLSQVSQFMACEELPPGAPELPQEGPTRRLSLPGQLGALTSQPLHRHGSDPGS

IC50 [1]: 36 nM
EC50 (Plasmodium falciparum [2]): 17 nM
Structure (SMILES): Cc1nc(Nc2ccc(S(F)(F)(F)(F)F)cc2)c2c(C)noc2n1

Structure (SMILES): CCN(CC)CCCC(C)Nc1ccnc2cc(Cl)ccc12 (stereo not given) [CHLOROQUINE]
EC50 (Plasmodium falciparum [3]): 165 nM

Structure (SMILES): CC(C)C[C@@H](CN1CCN(C)CC1)Nc1ccnc2cc(Cl)ccc12
Activity (Plasmodium yoelii [4]): 100%
IC50 (Plasmodium falciparum [5]): 8.8 nM
IC50 (Plasmodium falciparum [6]): 13.6 nM

Structure (SMILES): C[C@H]1[C@H](N2CCNCC2)O[C@@H]2O[C@]3(C)CC[C@H]4[C@H](C)CC[C@@H]1[C@@]24OO3
IC50 (Plasmodium falciparum [7]): 1.7 nM
IC50 (Plasmodium falciparum [8]): 3.1 nM
IC50 (Plasmodium falciparum [9]): 1.4 nM
IC50 (Plasmodium falciparum [10]): 1.9 nM

pKa [11]: 12.6
Structure (SMILES): O=C(c1ccc(OC[C@H](O)Cn2ncnn2)cc1)N1CC[C@H](c2ccc(F)cc2)C1

IC50 (Plasmodium falciparum [12]): 10 µg/mL (≈ 24.3 µM)
Structure (SMILES): CNNc1nc(NNC)nc(Nc2nc(-c3ccc(Cl)cc3Cl)cs2)n1

IC50 (CYP450): > 10 µg/mL
IC50 [13]: 48.1 nM
IC50 (Plasmodium falciparum [15]): 2.6 nM
IC50 (Plasmodium falciparum [17]): 1.8 nM
Structure (SMILES): Cc1cc(Nc2ccc(S(F)(F)(F)(F)F)cc2)n2nc(C(C)(F)F)nc2n1 [DSM-265]
ED90 (Plasmodium falciparum [14]): 3 mg/kg
IC50 [16]: 1660 nM

Structure (SMILES): CCC1CCN(CC(CC(C)C)Nc2ccnc3cc(Cl)ccc23)CC1 (stereo not given)
IC50 (Plasmodium falciparum [18]): 97.8 nM
Activity (Plasmodium yoelii [19]): 100%
survival at 96 h [20]: 100%
IC50 (Plasmodium falciparum [21]): 57 nM

Structure (SMILES): C[C@H]1[C@H](Nc2ccc(F)cc2)O[C@@H]2O[C@]3(C)CC[C@H]4[C@H](C)CC[C@@H]1[C@@]24OO3
IC50 (Plasmodium falciparum [7]): 11.1 nM
IC50 (Plasmodium falciparum [8]): 1.3 nM
IC50 (Plasmodium falciparum [9]): 3 nM
IC50 (Plasmodium falciparum [10]): 0.6 nM

IC50 [22]: 23 nM
Structure (SMILES): NN1CN(c2ccc3ccccc3c2)C2=C(C(=O)CO2)C1=O

Structure (SMILES): c1cc([C@H]2CC[C@]3(CC2)OO[C@]2(O3)C3CC4CC(C3)CC2C4)ccc1OCCN1CCOCC1 [ARTEFENOMEL]
pKa [11]: 7
IC50 (Plasmodium falciparum [15]): 3.8 nM
IC50 (Plasmodium falciparum [17]): 4.6 nM

Structure (SMILES): CN(C(=S)NN=C(c1ccccn1)c1ccccn1)c1ccccc1
EC50 (Plasmodium falciparum [23]): 13 nM
EC50 (Plasmodium falciparum [24]): 6.2 nM
ED50 (Plasmodium berghei [25]): 1.2 mg/kg/day
EC50 (Plasmodium falciparum [26]): 6.9 nM
EC50 (Plasmodium falciparum [27]): 9.1 nM
Cmax [28]: 1880 ng/mL
half-life [29]: 48.7 h

Structure (SMILES): CC1CCCN(C[C@H](C)Nc2ccnc3cc(Cl)ccc23)C1 (stereo not given in full)
IC50 (Plasmodium falciparum [5]): 14 nM
IC50 (Plasmodium falciparum [6]): 21 nM

Structure (SMILES): CC(C)c1nc2ccccc2n1CC(=O)Nc1c(-c2ccc(Cl)cc2F)c(C(F)(F)F)nn1C
Activity (Plasmodium falciparum [30]): 4.6 µm

Structure (SMILES): CC1CCN(C[C@@H](CC2CCCCC2)Nc2ccnc3cc(Cl)ccc23)CC1
IC50 (Plasmodium falciparum [5]): 938 nM
IC50 (Plasmodium falciparum [6]): 7 nM

dose excreted [31]: < 1%
Structure (SMILES): COc1cc(NCCCC(C)N)c2ncccc2c1 (stereo not given) [QUINOCIDE]

dose excreted [31]: < 1%
Structure (SMILES): COc1cc(NCCCCCNC(C)C)c2ncccc2c1 [PENTAQUINE]

pKa [11]: 8.4
IC50 (Plasmodium falciparum [15]): 15 nM
IC50 (Plasmodium falciparum [17]): 9 nM
Structure (SMILES): Cc1nc(Nc2ncc(N3CCN(C)[C@H](C)C3)c(Nc3cc(C)n(C)n3)n2)cc(C2CC2)c1F [SUTIDIAZINE]

IC50 [32]: 3.4 nM
Structure (SMILES): CS(=O)(=O)c1ccc(-c2cnc(N)c(-c3ccc(C(F)(F)F)nc3)c2)cc1 [MMV-048]
ED90 (Plasmodium falciparum [14]): 0.57 mg/kg

Structure (SMILES): Nc1ncc(-c2ccc(C(=O)N3CCNCC3)cc2)nc1-c1ccc(C(F)(F)F)cc1
pKa [11]: 8.1
ED90 (Plasmodium berghei [33]): 0.25 mg/kg
IC50 (Plasmodium falciparum [15]): 4.7 nM
IC50 [32]: 23 nM
IC50 (Plasmodium falciparum [17]): 5.4 nM

Structure (SMILES): CC(C)C[C@@H](CN1CCN(C)CC1)Nc1ccnc2cc(Cl)ccc12.Cl
Activity (Plasmodium yoelii [34]): 100%
